Earlier results, collected in patent publication US20140271704A1, “METHODS OF PRODUCING NUTRITIONAL SUPPLEMENTS USING MUSHROOMS FROM THE SPECIES Poria cocos OR Flammulina velutipes” (JARROW FORMULAS, INC., priority 2013, published 2014).

Tests used:
[1] = oral, animal
[2] = tested on: homocysteine; settings: human; compared with racemic mixtures of equal amounts of L- and D-isomer

| SMILES | absorption from the intestinal tract [1] | reduction of homocysteine versus racemic mixture [2] |
| --- | --- | --- |
| CN1c2c(nc(N)[nH]c2=O)NCC1CNc1ccc(C(=O)N[C@@H](CCC(=O)O)C(=O)O)cc1 (some centres unmarked) [5-MTHF, 5-methyltetrahydrofolate] | readily absorbed from the intestinal tract without degradation | – |
| CN1c2c(nc(N)[nH]c2=O)NCC1CNc1ccc(C(=O)N[C@@H](CCC(=O)O)C(=O)O)cc1 (single isomer, unassigned) [L-isomer of 5-MTHF, 5-methyltetrahydrofolate] | – | superior to racemic mixtures |
